Reference: US7378387B2, “Method of suppressing immune response by reducing intracellular content of glutathione in macrophages and monocytes” (Ajinomoto Co., Inc., priority 1997, dated 2008)
Positions of bridges follow the written chain, without caps; N, C: chain ends. Residues, ends and D or L forms follow the SMILES beside them. Chains are numbered I, II in the order given.

Columns and labels:
[1] = system: macrophage-like cells from tissues of rheumatoid arthritis patients; assay: Intracellular GSH by ACAS in macrophage-like cells from tissues of rheumatoid arthritis patients (Example 17); assay type: cell-based, human; conditions: 3 hours; for induction of oxidative macrophage with the reduced amount of intracellular glutathione: added at 2 μM; for relative ratio of oxidative macrophages (reduced amount of intracellular glutathione) compared with saline-added group: added at 2 mM
Procedure: Synovial tissue was aseptically sampled from tissues resected during joint surgery. The sampled synovial tissue was rinsed in phosphate buffer, from which the surface was peeled off in a petri dish containing the same phosphate buffer. Then, the resulting synovial tissue was cut into pieces with a pair of scissors. To the pieces were added 2% hyaluronidase (manufactured by Sigma), 0.2% DNase (derived from bovine pancreas) and 5% collagenase, for enzymatic treatment at 37° C. for 2 hours. After discarding the resulting debris, a cell fraction recovered by centrifugation was adjusted to 5×10^5 cells/ml in a phenol red-free DMEM culture medium supplemented with 10% FCS (manufactured by Nikken Biology Co.). For 3 hours, the cells were allowed to adhere to the plastic surface. Plastic surface adherent macrophage-like cells harvested with a rubber policeman were then subjected to rinsing in combination with centrifugation three times using the culture medium under ice cooling. The resulting cells were designated as synovial tissue-derived macrophages and were then subjected to the following experiments.
By the same manner as in Example 3, macrophage-like cells were collected from tissues of rheumatoid arthritis patients, and were then suspended and adjusted in a phenol red-free RPMI 1640 culture medium supplemented with 10% fetal calf serum to 3×10^6 cells/ml. The suspension was divided in 100-μl portions on Lab-Tek Chamber Slide (#136439; manufactured by NUNC, CO.), for culturing in 5% CO2 at 37° C. for 3 hours; after discarding the nonadherent cells, the 200-μl serum-free culture medium further containing any of the following chemical agents was fed to the resulting culture, for reaction for 3 hours; and then, the resulting culture was rinsed three times, followed by addition of the serum-free culture medium of 200 μl and addition of monochlorobimane to a final concentration of 10 μM, for reaction for 30 minutes. The amount of intracellular GSH was assayed by imaging analysis with an ACAS system (manufactured by Meridian Co.).

[2] = system: peritoneal exudate cells (macrophages); assay: Induction of oxidative or reductive macrophages by administration, monochlorobimane/ACAS (Example 9); assay type: in vivo, DBA/2 mice; conditions: intraperitoneally 20 μg/0.5 ml/h each, twice a week for three weeks, 9-11 weeks of age
Procedure: This was clarified by harvesting peritoneal exudate cells 20 hours after the completion of the administration, adhering the cells to the plastic surface, then reacting the cells with 10 μM of monochlorobimane at 37° C. for 30 minutes, and analyzing the reaction product with ACAS. The increase in the amounts of oxidative macrophages can easily be determined visually from the fact that almost no reaction product with monochlorobimane is observed, namely, a gray or blue image is provided, and the increase in the amounts of reductive macrophages from the fact that a red or yellow image is provided respectively. […] Meanwhile, the same examination was conducted by harvesting peritoneal exudate cells after 20 hours of the administration of 2 mg of N-acetylcystine (NAC).

[3] = system: reduced glutathione in intraperitoneal macrophages; assay: Reduced glutathione in intraperitoneal macrophages of NOD mice by ACAS (Example 22); assay type: in vivo; conditions: doses given per substance
[4] = system: adjuvant-induced arthritis; assay: Adjuvant-induced arthritis (AA) in rats, joint swelling (Examples 18 and 19); assay type: in vivo, Lewis rats; conditions: Table 4
Procedure: Adjuvant-induced arthritis was triggered in Lewis rats in a conventional manner; and the effects of chemical agents were examined in the animals. Adjuvant-induced arthritis is well known as an experimental arthritis inducible in rats [Taurog et al., Meth. Enzymol. 162, 339-355 (1988)]. […] An adjuvant is administered at 1 mg/0.1 ml per rate at a site of caudal root. The edema reaches its peak about 2 to 3 weeks after the administration of the adjuvant. The edema is triggered by inflammatory infiltration of monocytes. Swollen joints are measured with a micrometer every day; comparing the diameters of the joints prior to and after adjuvant administration and after initiation of the treatment with chemical agents with the diameters of the joints in the control group, the effects of the chemical agents were expressed as the ratio in % of joint swelling in the experimental groups to joint swelling in the control group. The effects were determined on day 15 after adjuvant administration. The chemical agents were given, starting the day next to the day of adjuvant administration, and every 3 days thereafter.
A single dose is 1 mg/kg for (NAC)2 and (NAC-OMe)2; 100 mg/kg for NAC; and 0.1 mg/kg for lentinan.
Adjuvant-induced arthritis was induced in Lewis rats in a conventional manner. In the same manner as in Example 11, the effects of chemical agents were examined in these rats. The conditions were the same as described above.

[5] = system: spontaneous onset of insulin-dependent diabetes mellitus; assay: Onset of diabetes mellitus in NOD mice dosed at age 9 to 11 weeks (Example 25); assay type: in vivo; conditions: nine times
Source text: NOD mice purchased from Nippon Clair, Co. were naturally mated together. Among the off spring mice, a colony of NOD mice with a high frequency of the spontaneous onset of insulin-dependent diabetes mellitus was established. Female NOD mice from the colony were used for the present experiment. Chemical agents were orally or intraperitoneally administered to the NOD mice aged 9 to 11 weeks three times per week, in total nine times; and based on the test results of urine glucose, positive or negative, the onset of diabetes mellitus was followed once per week. Urine glucose was detected, using Uropaper (BM Test Glucose 5000, manufactured by Yamanouchi Pharmaceuticals, Co. Ltd.). The onset was judged on week 22; the doses were the same as in Example 24.

[6] = system: insulin-non-dependent diabetes mellitus; assay: Blood sugar level in db/db mice (Example 26); assay type: in vivo; conditions: intraperitoneal, age 4 to 9 weeks, three times per week; at satiation; saline 100
Source text: db/db mice purchased from Nippon Clair, Co. were naturally mated together. Among the off spring mice, a colony of db/db mice with a high frequency of the spontaneous onset of insulin-non-dependent diabetes mellitus was established. Male db/db mice from the colony were used for the present experiment. Chemical agents were intraperitoneally administered to the db/db mice aged 4 to 9 weeks three times per week, in total 18 times; and based on the level of blood sugar in the mice at satiation, the effects of the chemical agents on the improvement of the diseased conditions of insulin-non-dependent diabetes mellitus were followed once per week. The doses were the same as in Example 24.

[7] = system: spontaneous onset of insulin-dependent diabetes mellitus; assay: Onset of diabetes mellitus in NOD mice dosed at age 3 to 6 and 9 to 11 weeks (Example 24); assay type: in vivo; conditions: doses as in the table line, 15 times in total, judged on week 22, saline 60
Source text: NOD mice purchased from Nippon Clair, Co. were naturally mated together. Among the off spring mice, a colony of NOD mice with a high frequency of the spontaneous onset of insulin-dependent diabetes mellitus was established. Female NOD mice from the colony were used for the present experiment. […] Urine glucose was detected, using Uropaper (BM Test Glucose 5000, manufactured by Yamanouchi Pharmaceuticals, Co. Ltd.). The onset was judged on week 22.

[8] = intraperitoneal dosing on alternate days from age 3-4 weeks
[9] = oral dosing on alternate days from age 3-4 weeks
[10] = intraperitoneal, judged on week 22, doses as in Example 24, saline 67

| Molecule | induction of oxidative macrophage with the reduced amount of intracellular glutathione [1] | induction of oxidative macrophages on ACAS [2] | relative ratio of oxidative macrophages (reduced amount of intracellular glutathione) compared with saline-added group [1] | relative ratio of oxidative macrophages compared with saline-dosed NOD mice [3, 8] | relative ratio of oxidative macrophages compared with saline-dosed NOD mice [3, 9] | further results |
| --- | --- | --- | --- | --- | --- | --- |
| CC(=O)N[C@@H](CSSC[C@H](NC(C)=O)C(=O)OCCCCO[N+](=O)[O-])C(=O)O [N,N′-diacetylcystine nitroxybutyl ester] | confirmed | induction of oxidative macrophages was confirmed |  |  |  |  |
| CC(=O)N[C@@H](CS)C(=O)OCCCCO[N+](=O)[O-] [N-acetylcysteine nitroxybutyl ester] |  |  | same action was also observed | same action is also observed | same action is also observed |  |
| O=C(O)CCCC[C@@H]1CCSS1 (racemic) [lipoic acid] |  |  |  | same action is also observed |  |  |
| COC(=O)[C@H](CSSC[C@H](NC(=O)[C@H](C)N)C(=O)OC)NC(=O)[C@H](C)N [(NAlaC-OMe)2, N,N′-di-L-alanylcystine dimethyl ester] (I: H-Ala-Cys-OMe / II: H-Ala-Cys-OMe; disulfide I:2-II:2) | confirmed | induction of oxidative macrophages was confirmed |  |  |  | Ratio in % of joint swelling in experimental groups to joint swelling in control group ([4]; intravenous): 45%; Frequency (%) of onset of diabetes mellitus ([5]; route not given, judged on week 22, saline 67): 11% |
| CCOC(=O)CNC(=O)[C@H](CS)NC(=O)CC[C@H](N)C(=O)OCC [glutathione diethyl ester] |  |  | same action was also observed | same action is also observed | same action is also observed | Ratio in % of joint swelling in experimental groups to joint swelling in control group ([4]; intraperitoneal, 100 mg/kg): 132%; Relative ratio % of blood sugar level, 6 weeks [6]: 82%; Relative ratio % of blood sugar level, 7 weeks [6]: 62%; Relative ratio % of blood sugar level, 8 weeks [6]: 60%; Frequency (%) of onset of diabetes mellitus ([7]; intraperitoneal): 0%; Frequency (%) of onset of diabetes mellitus ([7]; oral): 0%; Frequency (%) of onset of diabetes mellitus [5, 10]: 67% |
| COC(=O)C(N)CCC(=O)NC(CS)C(=O)OC (stereo not shown) [γ-glutamylcysteine dimethyl ester] |  |  | same action was also observed | same action is also observed |  | Ratio in % of joint swelling in experimental groups to joint swelling in control group ([4]; intraperitoneal, 100 mg/kg): 120%; Relative ratio % of blood sugar level, 6 weeks [6]: 85%; Relative ratio % of blood sugar level, 7 weeks [6]: 65%; Relative ratio % of blood sugar level, 8 weeks [6]: 60%; Frequency (%) of onset of diabetes mellitus ([7]; intraperitoneal): 10%; Frequency (%) of onset of diabetes mellitus ([7]; oral): 20%; Frequency (%) of onset of diabetes mellitus [5, 10]: 55% |
| CC(=O)N[C@@H](CSSC[C@H](NC(C)=O)C(=O)OC(C)C)C(=O)OC(C)C [(NAC-OiPr)2, N,N′-diacetylcystine diisopropyl ester] | confirmed | induction of oxidative macrophages was confirmed |  |  |  |  |
| glutathione nitroxybutyl ester |  |  | same action was also observed | same action is also observed | same action is also observed |  |
